In ChEMBL document CHEMBL1150554, “Synthesis and activity of spiroisoindolines as novel noncompetitive NMDA antagonists” (Bioorg Med Chem Lett, 1993):
Calls of active or inactive are those of the source. No cut-off for these calls is given here.

Legend:
Glutamate NMDA receptor = test: Inhibition of [3H]-TCP binding to NMDA receptors on rat brain membranes.; type: cell membranes, Membrane
Gerbillinae [1] = test: Tested for the percent protection from CA1 damage of the hippocampus (gerbil ischemia-induced cell death) after 1 mg/kg intraperitoneal administration, 45 min pre and 5 min post ischemia event; type: functional
Mus musculus [2] = test: Compound was tested at a dose of 0.5-1mg/Kg, ip; produced effects such as body rolling, ataxia and hyperlocomotion; type: functional, organism-based
Mus musculus [3] = test: Tested in vivo for the antagonistic activity after 0.4 ug/mouse of NMDA intracerebral administration in mice; type: functional; settings: central
Gerbillinae [4] = test: Tested for the percent reduction in CA1 damage of the hippocampus (gerbil ischemia-induced cell death) after 60 mg/kg intraperitoneal administration,45 min pre and 5 min post ischemia event; type: functional
Mus musculus [5] = test: Compound was tested up to a dose of 80mg/Kg, ip; did not produce effects such as body rolling, ataxia and hyperlocomotion; type: functional, organism-based
Rattus norvegicus = test: Tested […] for the NMDA-induced cytotoxicity at a concentration of 100 uM in rat cortical cell cultures; type: functional
Mus musculus [6] = test: Compound was tested at a dose of 20-40mg/Kg, ip; produced effects such as body rolling, ataxia and hyperlocomotion; type: functional, organism-based

Compound	IC50 (Glutamate NMDA receptor) [nM]	other results
CCCN1Cc2ccccc2C12CCCc1sccc12 (centres undefined)	1500	–
c1ccc2c(c1)CCCCC21NCc2ccccc21 (centres undefined)	1700	–
COc1ccc2c(c1)C1(CCCc3ccccc31)NC2 (centres undefined)	4000	–
CCCN1Cc2ccc(OC)cc2C12CCCCc1ccccc12 (centres undefined)	17000	–
C[C@]12N[C@H](Cc3ccccc31)c1ccccc12.Cl [DIZOCILPINE HYDROCHLORIDE]	–	Protection (Gerbillinae [1]): 42%; Activity (Mus musculus [2]): Active
c1ccc2c(c1)CNC21CCCc2sccc21 (centres undefined)	600	–
CN1Cc2ccccc2C12CCCc1ccccc12 (centres undefined)	1500	–
CN1Cc2ccc(O)cc2C12CCCCc1ccccc12 (centres undefined)	160	–
CCCN1Cc2ccccc2C12CCCc1ccccc12 (centres undefined)	1600	–
COc1ccc2c(c1)C1(CCCc3ccccc31)N(C)C2 (centres undefined)	790	–
c1ccc2c(c1)CCCC21NCc2ccccc21 (centres undefined)	890	–
COc1ccc2c(c1)C1(CCCCc3ccccc31)NC2 (centres undefined)	4800	–
COc1cccc2c1CCC21NCc2ccccc21 (centres undefined)	5000	–
CN1Cc2ccccc2C12CCCc1sccc12.O=C(O)C(=O)O (centres undefined)	490	ED50 (Mus musculus [3]): 32 mg/kg; Reduction (Gerbillinae [4]): 84%; Activity (Mus musculus [5]): inactive; Protection (Rattus norvegicus): 68%
Oc1ccc2c(c1)C1(CCCc3ccccc31)NC2 (centres undefined)	240	–
CCCN1Cc2ccccc2C12CCCCc1ccccc12 (centres undefined)	17000	–
CCCN1Cc2ccccc2C12CCc1ccccc12 (centres undefined)	440	–
CN1Cc2ccccc2C12CCCCc1ccccc12 (centres undefined)	1700	–
CN1Cc2ccccc2C12CCc1ccccc12 (centres undefined)	65	–
CN1Cc2ccc(O)cc2C12CCCc1ccccc12 (centres undefined)	200	–
Oc1cccc2c1CCC21NCc2ccccc21 (centres undefined)	730	–
c1ccc2c(c1)CCC21NCc2ccccc21 (centres undefined)	980	Activity (Mus musculus [6]): Active
COc1ccc2c(c1)C1(CCCCc3ccccc31)N(C)C2 (centres undefined)	2700	–
